Test [1] relates to HeLa cells. In words: CCK-8 anti-proliferation assay, HeLa. Type of test: cell-based, human. On the procedure: (§1) Tumor cell anti-proliferation activities were determined by cell counting kit-8 (CCK-8) assay.
(§2) MCF-7, A375, and HeLa cells were cultured in DMEM, HCT116 cells were cultured in McCoy's 5A medium, and DU145 and CT26 were cultured in RPMI 1640 with 10% FBS, 1% penicillin-streptomycin solution (10,000 U/mL penicillin and 10,000 μg/mL streptomycin) at 37 °C under 5% CO2. The cells were seeded in 96-well plates (4 × 10^3 cells/well) overnight and then treated with various concentrations (1–50 μmol/L) of the compound. After 48 h, the cell viability was measured by CCK-8 assay. The absorbance of each well was measured using a microplate reader (Multiskan FC, Thermo Fisher Scientific, Massachusetts, USA) at 450 nm wavelength. Assays were performed in triplicate. Compound concentrations that inhibited cell growth by 50% (IC50) were calculated from the dose–response curves of each cell line. Data are mean ± SD values from three independent experiments.
Background: Tetrazolium dyes change colour on reduction, which living cells bring about.

The subject of test [2] is HCT116 cells. In words: CCK-8 anti-proliferation assay, HCT116. The class given is cell-based, human. On the procedure: as §1, §2
[3] abbreviates: CCK-8, 48 h, mean ± SD, three independent experiments.
The mark [4] stands for this setting: Homo sapiens, HeLa, 48 h, CCK-8, 48 h, mean ± SD, three independent experiments.
The mark [5] stands for this setting: Homo sapiens, HCT-116, 48 h, CCK-8, 48 h, mean ± SD, three independent experiments.

Consider `CCOC(=O)C1(n2cnc3c(N4CCC(N5CCOCC5)CC4)ncnc32)CSCC1O` (single isomer, unassigned) [15a], for which the concentration for half-maximal inhibition (IC50) (commonly the concentration needed to halve the response being measured) in test [1] (setting [3]) is 13.7 ± 1.33 µM; in test [2] (setting [3]), 43.9 ± 2.11 µM.
For `CCOC(=O)C1(n2cnc3c(N4CCSCC4)ncnc32)CSCC1O` (single isomer, unassigned) [10a], in that order: 45.8 ± 2.12 µM and 18.8 ± 1.04 µM.
For `CCOC(=O)C1(n2cnc3c(N4CCOCC4)ncnc32)CSCC1O` (single isomer, unassigned) [9a], in that order: 10.8 ± 1.03 µM and more than 50 µM.
The matching figures for `CCOC(=O)C1(n2cnc3c(N4CCC(F)CC4)ncnc32)CSCC1O` (single isomer, unassigned) [12b]: 40.9 ± 3.08 µM and 3.92 ± 0.87 µM.
With `CCOC(=O)C1(n2cnc3c(Cl)nc(F)nc32)CSCC1O` (single isomer, unassigned) [39a], the IC50 in test [1] (Table S3, CCK-8, mean ± SD) stood at 11.2 ± 1.32 µM; in test [2] (Table S3, CCK-8, mean ± SD) it was 3.42 ± 0.42 µM.
Take `CCCCSc1ncnc2c1ncn2[C@@]1(C(=O)OCC)CSC[C@@H]1O` (relative stereo) [25b]: the half-inhibitory concentration (IC50) in test [1] (setting [4]) is 6.32 ± 0.82 µM; in test [2] (setting [5]) it was 2.84 ± 0.27 µM.
Consider `CCOC(=O)C1(n2cnc3c(N4CCC(Cl)CC4)ncnc32)CSCC1O` (single isomer, unassigned) [14a], for which the IC50 in test [1] (setting [3]) was found to be 12.1 ± 1.32 µM; in test [2] (setting [3]) it was 15 ± 2.16 µM.
For `CCOC(=O)C1(n2cnc3c(N4CCCCC4)nc(N)nc32)CSCC1O` (single isomer, unassigned) [32b], in that order: 5.37 ± 1.09 µM and 0.81 ± 0.12 µM.
Take `CCOC(=O)C1(n2cnc3c(N4CCC(C(F)(F)F)CC4)ncnc32)CSCC1O` (single isomer, unassigned) [13a]: the IC50 in test [1] (setting [3]) amounted to 42 ± 2.12 µM; in test [2] (setting [3]) it was 5.89 ± 1.02 µM.
Consider `CCOC(=O)C1(n2cnc3c(N4CCOCC4)nc(Cl)nc32)CSCC1O` (single isomer, unassigned) [42b], for which the IC50 in test [1] (Table S3, CCK-8, mean ± SD) was determined as 3.21 ± 0.65 µM; in test [2] (Table S3, CCK-8, mean ± SD), 4.48 ± 0.56 µM.
Turning to `CCOC(=O)[C@]1(n2cnc3c(SCC)ncnc32)CSC[C@@H]1O` (relative stereo) [22b], the IC50 in test [1] (setting [4]) was 3.27 ± 0.82 µM; in test [2] (setting [5]) it was 2.42 ± 0.82 µM.
For `CCOC(=O)[C@]1(n2cnc3c(SCc4ccccc4)ncnc32)CSC[C@H]1O` (relative stereo) [27a], in that order: 22.3 ± 2.09 µM and 14.4 ± 1.64 µM.
As to `CCOC(=O)C1(n2cnc3c(N4CCC(C)CC4)ncnc32)CSCC1O` (single isomer, unassigned) [11a], the results for the 50% inhibitory concentration (IC50) in test [1] (setting [3]) and in test [2] (setting [3]) were 21.8 ± 2.42 µM and 1.44 ± 0.13 µM, respectively.
As for `CCOC(=O)[C@]1(n2cnc3c(N4CCCCC4)nc(F)nc32)CSC[C@H]1O` [33aa], the results for the half-inhibitory concentration (IC50) in test [1] (setting [4]) and in test [2] (setting [5]) were 6.17 ± 1.01 µM and 0.58 ± 0.17 µM, respectively.
For `CCCSc1nc(F)nc2c1ncn2[C@]1(C(=O)OCC)CSC[C@H]1O` [36bb], in that order: 9.49 ± 1.18 µM and 0.37 ± 0.08 µM.
Turning to `CCOC(=O)C1(n2cnc3c(N4CCSCC4)ncnc32)CSCC1O` (single isomer, unassigned) [10b], the concentration for half-maximal inhibition (IC50) was 10.2 ± 1.93 µM in test [1] (setting [3]) and 10.1 ± 1.01 µM in test [2] (setting [3]).
With `CCOC(=O)C1(n2cnc3c(Cl)nc(Cl)nc32)CSCC1O` (single isomer, unassigned) [40b], the IC50 in test [1] (Table S3, CCK-8, mean ± SD) turned out to be 4.45 ± 1.07 µM; in test [2] (Table S3, CCK-8, mean ± SD) it was 2.13 ± 0.46 µM.
Turning to `CCOC(=O)[C@]1(n2cnc3c(SC(C)C)ncnc32)CSC[C@@H]1O` (relative stereo) [23b], the values for the 50% inhibitory concentration (IC50) in test [1] (setting [4]) and in test [2] (setting [5]) were 3.43 ± 0.76 µM and 4.01 ± 0.88 µM, respectively.
As for `CCOC(=O)C1(n2cnc3c(N4CCOCC4)ncnc32)CSCC1O` (single isomer, unassigned) [9b], the 50% inhibitory concentration (IC50) is 10.2 ± 1.05 µM in test [1] (setting [3]) and 17.1 ± 1.12 µM in test [2] (setting [3]).
`C#CCSc1ncnc2c1ncn2[C@@]1(C(=O)OCC)CSC[C@H]1O` (relative stereo) [24a]: the 50% inhibitory concentration (IC50) in test [1] (setting [4]) came to 15.9 ± 2.12 µM; in test [2] (setting [5]) it was 1.81 ± 0.12 µM.
For `CCOC(=O)C1(n2cnc3c(Cl)ncnc32)CSCC1O` (single isomer, unassigned) [2b], the 50% inhibitory concentration (IC50) in test [1] (setting [3]) and in test [2] (setting [3]) was more than 50 µM in each case.
For `CCOC(=O)[C@]1(n2cnc3c(SCC)ncnc32)CSC[C@H]1O` (relative stereo) [22a], the IC50 in test [1] (setting [4]) amounted to 5.46 ± 1.02 µM; in test [2] (setting [5]), 7.56 ± 1.09 µM.
In the case of `CCOC(=O)C1(n2cnc3c(N4CCC(N5CCOCC5)CC4)ncnc32)CSCC1O` (single isomer, unassigned) [15b], the IC50 in test [1] (setting [3]) turned out to be 7.71 ± 1.02 µM; in test [2] (setting [3]) it was 32 ± 2.09 µM.
Take `CCOC(=O)[C@]1(n2cnc3c(SCCCCl)ncnc32)CSC[C@H]1O` (relative stereo) [31a]: the IC50 in test [1] (setting [4]) and in test [2] (setting [5]) was more than 50 µM each time.
With `CCOC(=O)C1(n2cnc3c(OC)ncnc32)CSCC1O` (stereo not drawn) [7a], the half-maximal inhibitory concentration (IC50) in test [1] (setting [3]) and in test [2] (setting [3]) was more than 50 µM throughout.
With `CCOC(=O)C1(n2cnc3c(N4CCCC4)ncnc32)CSCC1O` (single isomer, unassigned) [20a], the results for the IC50 in test [1] (setting [3]) and in test [2] (setting [3]) were 11.4 ± 1.42 µM and 39.1 ± 1.35 µM, respectively.
The matching figures for `CCCSc1nc(Cl)nc2c1ncn2C1(C(=O)OCC)CSCC1O` (single isomer, unassigned) [37a]: 1.58 ± 0.36 µM and 3.81 ± 0.13 µM.
For the molecule `CCOC(=O)C1(n2cnc3c(Cl)nc(F)nc32)CSCC1O` (single isomer, unassigned) [39b], the IC50 amounted to 9.33 ± 1.17 µM in test [1] (Table S3, CCK-8, mean ± SD) and 2.01 ± 0.24 µM in test [2] (Table S3, CCK-8, mean ± SD).
For the molecule `CCOC(=O)[C@]1(n2cnc3c(Sc4cccc(F)c4)ncnc32)CSC[C@H]1O` (relative stereo) [28a], the results for the concentration for half-maximal inhibition (IC50) in test [1] (setting [4]) and in test [2] (setting [5]) were 9.47 ± 1.02 µM and 12.8 ± 1.08 µM, respectively.
The matching figures for `CCOC(=O)[C@]1(n2cnc3c(SC)ncnc32)CSC[C@H]1O` (relative stereo) [21a]: 31 ± 2.18 µM and 44.1 ± 1.36 µM.
Regarding `CCOC(=O)C1(n2cnc3c(N(C)C)ncnc32)CSCC1O` (single isomer, unassigned) [4a], the concentration for half-maximal inhibition (IC50) is 9.81 ± 1.12 µM in test [1] (setting [3]) and 17.4 ± 1.01 µM in test [2] (setting [3]).
Turning to `CCOC(=O)[C@]1(n2cnc3c(SCCCF)ncnc32)CSC[C@@H]1O` (relative stereo) [30b], the results for the IC50 in test [1] (setting [4]) and in test [2] (setting [5]) were 12.1 ± 1.12 µM and 10.9 ± 1.01 µM, respectively.
`CCCSc1nc(F)nc2c1ncn2[C@@]1(C(=O)OCC)CSC[C@@H]1O` [36ba]: the IC50 turned out to be 5.52 ± 1.12 µM in test [1] (setting [3]) and 0.89 ± 0.14 µM in test [2] (setting [3]).
For the molecule `CCOC(=O)C1(n2cnc3cncnc32)CSCC1O` (stereo not drawn) [1a], the IC50 in test [1] (setting [3]) and in test [2] (setting [3]) was more than 50 µM throughout. Further, the “anticancer activity” value in test [2] (under 50 μmol/L, HeLa and HCT116) is recorded as “no anticancer activity”.
As for `CCOC(=O)C1(n2cnc3c(Br)ncnc32)CSCC1O` (single isomer, unassigned) [3a], the IC50 was more than 50 µM in test [1] (setting [3]) and 8.97 ± 1.03 µM in test [2] (setting [3]).
`CCOC(=O)C1(n2cnc3c(Cl)nc(Cl)nc32)CSCC1O` (single isomer, unassigned) [40a]: the half-maximal inhibitory concentration (IC50) was found to be 8.21 ± 1.25 µM in test [1] (Table S3, CCK-8, mean ± SD) and 5.37 ± 1.02 µM in test [2] (Table S3, CCK-8, mean ± SD).
For the molecule `CCOC(=O)[C@]1(n2cnc3c(SCCCF)ncnc32)CSC[C@H]1O` (relative stereo) [30a], the values for the concentration for half-maximal inhibition (IC50) in test [1] (setting [4]) and in test [2] (setting [5]) were 10.8 ± 1.07 µM and 19.1 ± 1.37 µM, respectively.
In the case of `CCOC(=O)C1(n2cnc3c(N4CCC(C(F)(F)F)CC4)ncnc32)CSCC1O` (single isomer, unassigned) [13b], the IC50 in test [1] (setting [3]) worked out at 38.7 ± 2.09 µM; in test [2] (setting [3]), 2.37 ± 0.36 µM.
For `CCOC(=O)C1(n2cnc3c(N4CCC(Cl)CC4)ncnc32)CSCC1O` (single isomer, unassigned) [14b], in that order: 14.3 ± 1.58 µM and 18 ± 2.37 µM.
For the molecule `CCOC(=O)C1(n2cnc3c(N4CCC(Cc5ccccc5F)CC4)ncnc32)CSCC1O` (single isomer, unassigned) [17b], the IC50 amounted to 17 ± 1.12 µM in test [1] (setting [3]) and 4.49 ± 1.13 µM in test [2] (setting [3]).

Values taken from publication PMC12278645, “Design, synthesis, and antitumor activity of novel thioheterocyclic nucleoside derivatives by suppressing the c-MYC pathway” (Acta Pharmaceutica Sinica. B, 2025).
